The nature of series [1]: Differential scanning calorimetry (decomposition). Type of series: physicochemical. Conditions: DSC curve.
Procedure: Calorimetric studies are conducted using a Modulated Differential Scanning calorimetry instrument (MDSC). Accurately weighed samples are sealed in Tzero aluminum pans. Empty sealed Tzero aluminum pans are used as a reference. […] Thermal analysis of pure active, excipients, formulations and physical mixtures are performed. Data analysis is performed using Universal Analysis software to measure melting point enthalpy of melting.
Differential scanning calorimetry (DSC) is a thermoanalytical technique useful in detecting phase transitions in solid samples by measuring the amount of heat absorbed or released during such transitions.
DSC analysis was performed using a TA Trios DSC instrument. Samples tested were HPBCD, the Active, and the active-HPBCD inclusion complexes. Each weighed sample for analysis ranged from 2.00 mg to 4.00 mg.
The next series in a line: Phase solubility studies. Conditions: active with HPBCD; calculated using Eq. (1).
A short description of series [2]: Stability studies (shelf life, visible changes). Type of series: physicochemical. As to conditions: visible changes; for Stability of Actives at 40° C.: 40° C. accelerated stability. As for the experimental part: The effects of HPBCD on the shelf life stability of each active agent is studied at pre-determined temperatures for 11 weeks. Real time stability is observed at −17° C., 5° C. and 25° C., and accelerated stability is observed at 40° C. For accelerated stability, one day at 40° C. is equivalent to one week, thus the data represents 77 weeks. […] The vials are then placed in a temperature-controlled oven or refrigerator/freezer. The compounds are checked daily and any visible changes are noted.

Series [3] is described as follows: Skin permeation and delivery, Franz-type vertical diffusion cell. The series is classed as in vitro ADME, human. Conditions: 0-8 hours.
Procedure: Skin permeation was evaluated using a custom-fabricated Franz-type vertical diffusion cell (FDC). […] Fluid samples can be withdrawn for analysis from the receptor fluid. […] Membranes were defrosted, washed and subjected to visual inspection before use. Skin delivery and permeation studies were performed on six (6) replicates per Active formulation. A finite dose was applied to the surface of the skin under nonocclusive conditions. Dose volume was 10 μl (18 mg/cm^2). The dose was spread using a blunt glass rod. Receptor chambers were inserted in a dry block with an external magnetic stir bar drive that accommodated up to 15 Franz cells per block. […] Receptor well temperature was maintained at 32±0.5° C.; skin surface temperature was maintained at 30±1.0° C. Receptor wells were sampled at three time points, namely 8 hr, 24 hr and 48 hr; 300 μl was removed, loaded in a 96-well plate, and stored at 4-8° C. prior to analysis. Samples were analyzed within 5 days of collection. There was no further preparation of the samples prior to analysis. […] The membrane was […] […] Retention of the Actives in the epidermis and delivery of Actives to the dermis was measured by extracting the Active from each layer individually at twenty-four hours using dimethyl sulfoxide (DMSO). […] After the LC-MS or UV testing was complete, samples were analyzed using ChemStation software (Agilent).
The nature of series [4]: Solubility in water (statements). The series is classed as physicochemical.

Entries after “also recorded” stand apart in the source; their conditions may differ.

With `CCOC(=O)c1ccc(N)cc1` [Benzocaine], the “decomposition (DSC)” value in series [1] came out at 230 °C. The “association constant (Kc) for complex formation” value in the series “Phase solubility studies” is 1.031 M⁻¹. Besides, the “Stability of Actives at 5° C.” value in series [2] (Week 1), in series [2] (Week 2), in series [2] (Week 3), in series [2] (Week 4), in series [2] (Week 5) and in series [2] (Week 6) was 0 each time. The “Stability of Actives at 5° C.” value in series [2] (Week 7), in series [2] (Week 8), in series [2] (Week 9), in series [2] (Week 10) and in series [2] (Week 11) was 0 throughout. Moreover, the “Stability of Actives at 25° C.” value in series [2] (Week 1), in series [2] (Week 2), in series [2] (Week 3), in series [2] (Week 4), in series [2] (Week 5) and in series [2] (Week 6) was 0 each time. The “Stability of Actives at 25° C.” value in series [2] (Week 7), in series [2] (Week 8), in series [2] (Week 9), in series [2] (Week 10) and in series [2] (Week 11) was 0 each time. The “Stability of Actives at 40° C.” value in series [2] (Week 1), in series [2] (Week 2), in series [2] (Week 3), in series [2] (Week 4), in series [2] (Week 5) and in series [2] (Week 6) was 0 each time. The “Stability of Actives at 40° C.” value in series [2] (Week 7), in series [2] (Week 8), in series [2] (Week 9), in series [2] (Week 10) and in series [2] (Week 11) was 0 throughout.
For the compound `C=C(C)[C@@H]1CCC(C)=C[C@H]1c1c(O)cc(CCCCC)cc1O` [CBD, Cannabidiol], the “association constant (Kc) for complex formation” value in “Phase solubility studies” is 0.42247 M⁻¹. Moreover, the “delivered dose, transdermal” value in series [3] is recorded as “no amount of CBD was detected as penetrating through the skin”. In addition, the “Stability of Actives at 25° C.” value in series [2] (Week 1), in series [2] (Week 2) and in series [2] (Week 3) was 0 throughout. Further, the solubility in water result in series [4] is “completely insoluble in water; also recorded: poor water solubility”.

The record behind these values is US20200347153A1, “METHODS FOR FORMING INCLUSION COMPLEXES WITH HYDROPHILIC BETA-CYCLODEXTRIN DERIVATIVES AND COMPOSITIONS THEREOF” (priority 2019, published 2020).
